# Patent publication US9918915B2, “Personal care compositions providing enhanced cooling sensation” (THE PROCTER & GAMBLE COMPANY, priority 2007, dated 2018)
# Experiments:
# panelists = assay: Sensory evaluation of cooling sensation after brushing with coolant dentifrice followed by aqueous rinse with or without calcium; type: in vivo, human; design: key to Cooling Sensation Score: 0 = no cooling, 60 = intense cooling; 7.5 = definite cooling; settings: for Cooling Sensation Score: 0-60 scale
# Description: Sensory evaluation studies of coolant activity were conducted using a methodology patterned after the techniques described in M. C. Meilgaard, et al., Sensory Evaluation Techniques, 4th Ed. (2007). In one study, a panel of 11 trained sensory experts evaluated cooling sensation experienced after brushing with a dentifrice containing coolant(s) followed by rinsing with an aqueous rinse containing a calcium ion source. Panelists brushed teeth with 1.5 grams of a test dentifrice (containing coolant) or control (no coolant) and then expectorated. After brush expectoration, panelists evaluated cooling intensity, assigning a number between 0 (no cooling) to 60 (intense cooling). Panelists then rinsed mouth with 15 ml. of an aqueous rinse (with or without calcium) and expectorated. After rinse expectoration, panelists evaluated cooling intensity according to the same 0 to 60 scale. Evaluations were conducted at 5, 15, 30, 45, 60 minute, etc. time points. At each evaluation, panelists were instructed to breathe in through pursed lips and evaluate overall cooling sensation. In this test, a numerical score of 7.5 indicates meaningful or definite cooling.
# human TRPM8 = human TRPM8 (Homo sapiens, UniProt Q7Z2W7); assay: FLIPR intracellular calcium flux (Fluo-4) in HEK cells stably transfected with human TRPM8; settings: for % Change from G-180 value: pre-treatment with 100 uM test compound + 6.25 uM G-180 vs 6.25 uM G-180 alone, calcium fluorescence; for Average Fluorescence (n = 3): HEK cells with human TRPM8, Fluo-4
# human TRPM8, sequence (Q7Z2W7 whole entry): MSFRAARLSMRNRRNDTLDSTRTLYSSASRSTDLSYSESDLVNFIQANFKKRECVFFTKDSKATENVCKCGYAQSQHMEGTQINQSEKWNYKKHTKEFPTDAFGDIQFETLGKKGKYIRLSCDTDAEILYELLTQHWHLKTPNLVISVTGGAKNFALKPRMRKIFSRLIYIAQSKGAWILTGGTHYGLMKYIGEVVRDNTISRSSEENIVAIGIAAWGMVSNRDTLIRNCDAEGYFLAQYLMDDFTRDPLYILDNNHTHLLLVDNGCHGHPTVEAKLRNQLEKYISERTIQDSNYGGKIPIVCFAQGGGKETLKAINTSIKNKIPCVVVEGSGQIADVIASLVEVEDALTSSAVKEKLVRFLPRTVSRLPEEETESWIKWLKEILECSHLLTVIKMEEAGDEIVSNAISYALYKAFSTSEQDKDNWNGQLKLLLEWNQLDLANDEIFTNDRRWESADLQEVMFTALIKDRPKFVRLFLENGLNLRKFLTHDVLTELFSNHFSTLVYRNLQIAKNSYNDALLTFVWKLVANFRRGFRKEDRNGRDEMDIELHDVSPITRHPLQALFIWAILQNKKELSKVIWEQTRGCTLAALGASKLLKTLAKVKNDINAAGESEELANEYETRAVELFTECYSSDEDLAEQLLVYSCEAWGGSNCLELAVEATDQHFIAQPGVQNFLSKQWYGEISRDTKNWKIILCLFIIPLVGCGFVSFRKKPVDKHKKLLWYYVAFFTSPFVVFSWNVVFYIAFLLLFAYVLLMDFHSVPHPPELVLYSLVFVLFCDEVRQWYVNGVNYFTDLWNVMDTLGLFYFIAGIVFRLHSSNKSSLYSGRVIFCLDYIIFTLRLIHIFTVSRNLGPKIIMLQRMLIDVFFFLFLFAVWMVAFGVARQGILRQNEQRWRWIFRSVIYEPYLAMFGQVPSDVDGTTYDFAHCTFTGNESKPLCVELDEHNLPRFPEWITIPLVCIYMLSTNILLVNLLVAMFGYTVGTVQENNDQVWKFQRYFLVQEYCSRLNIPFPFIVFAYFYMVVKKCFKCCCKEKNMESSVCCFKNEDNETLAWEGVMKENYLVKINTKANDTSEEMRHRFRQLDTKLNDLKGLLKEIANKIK
# [1] = 1500 ppm coolant in paste, rinse Ca+2 0 ppm, 0 min.
# [2] = 1500 ppm coolant in paste, rinse Ca+2 0 ppm, 5 min.
# [3] = 1500 ppm coolant in paste, rinse Ca+2 0 ppm, 15 min.
# [4] = 1500 ppm coolant in paste, rinse Ca+2 0 ppm, 30 min.
# [5] = 1500 ppm coolant in paste, rinse Ca+2 0 ppm, 45 min.
# [6] = 1500 ppm coolant in paste, rinse Ca+2 0 ppm, 60 min.
# [7] = 1000 ppm coolant in paste, rinse Ca+2 0 ppm, 0 min.
# [8] = 1000 ppm coolant in paste, rinse Ca+2 0 ppm, 5 min.
# [9] = 1000 ppm coolant in paste, rinse Ca+2 0 ppm, 15 min.
# [10] = 1000 ppm coolant in paste, rinse Ca+2 0 ppm, 30 min.
# [11] = 1000 ppm coolant in paste, rinse Ca+2 0 ppm, 45 min.
# [12] = 1000 ppm coolant in paste, rinse Ca+2 0 ppm, 60 min.
# [13] = pre-treatment with 100 uM test compound for 30 minutes, then 6.25 uM G-180
# [14] = 800 ppm coolant in paste, rinse Ca+2 0 ppm, 0 min.
# [15] = 800 ppm coolant in paste, rinse Ca+2 0 ppm, 5 min.
# [16] = 800 ppm coolant in paste, rinse Ca+2 0 ppm, 15 min.
# [17] = 800 ppm coolant in paste, rinse Ca+2 0 ppm, 30 min.
# [18] = 800 ppm coolant in paste, rinse Ca+2 0 ppm, 45 min.
# [19] = 800 ppm coolant in paste, rinse Ca+2 0 ppm, 60 min.
# [20] = 800 ppm coolant in paste, rinse Ca+2 723 ppm, 0 min.
# [21] = 800 ppm coolant in paste, rinse Ca+2 723 ppm, 5 min.
# [22] = 800 ppm coolant in paste, rinse Ca+2 723 ppm, 15 min.
# [23] = 800 ppm coolant in paste, rinse Ca+2 723 ppm, 30 min.
# [24] = 800 ppm coolant in paste, rinse Ca+2 723 ppm, 45 min.
# [25] = 800 ppm coolant in paste, rinse Ca+2 723 ppm, 60 min.
smiles,measurement,setting,value
"CC(C)[C@@H]1CC[C@@H](C)CC12OCC(CO)O2 (some centres unmarked) [MGA, menthone glycerol acetal]",Cooling Sensation Score,panelists; [1],16.5
same,Cooling Sensation Score,panelists; [2],13.6
same,Cooling Sensation Score,panelists; [3],4.4
same,Cooling Sensation Score,panelists; [4],0
same,Cooling Sensation Score,panelists; [5],0
same,Cooling Sensation Score,panelists; [6],0
same,Cooling Sensation Score,"panelists; 1500 ppm coolant in paste, rinse Ca+2 723 ppm, 0 min.",20.7
same,Cooling Sensation Score,"panelists; 1500 ppm coolant in paste, rinse Ca+2 723 ppm, 5 min.",18.3
same,Cooling Sensation Score,"panelists; 1500 ppm coolant in paste, rinse Ca+2 723 ppm, 15 min.",7.0
same,Cooling Sensation Score,"panelists; 1500 ppm coolant in paste, rinse Ca+2 723 ppm, 30 min.",1.4
same,Cooling Sensation Score,"panelists; 1500 ppm coolant in paste, rinse Ca+2 723 ppm, 45 min.",0
same,Cooling Sensation Score,"panelists; 1500 ppm coolant in paste, rinse Ca+2 723 ppm, 60 min.",0
same,Calcium enhancing effect on cooling,panelists; 1500 ppm level of coolant in dentifrice,calcium enhancing effect was also observed
same,Potentiating effect of calcium ions on cooling intensity and duration,panelists; at the levels of coolant and calcium used,particularly evident
"CC1CCC(C(C)C)C(OC(=O)C(C)O)C1 (centres unmarked) [Menthyl Lactate, menthyl lactate]",Cooling Sensation Score,panelists; [7],23.0
same,Cooling Sensation Score,panelists; [8],12.7
same,Cooling Sensation Score,panelists; [9],2.3
same,Cooling Sensation Score,panelists; [10],0
same,Cooling Sensation Score,panelists; [11],0
same,Cooling Sensation Score,panelists; [12],0
same,Cooling Sensation Score,"panelists; 1000 ppm coolant in paste, rinse Ca+2 723 ppm, 0 min.",23.5
same,Cooling Sensation Score,"panelists; 1000 ppm coolant in paste, rinse Ca+2 723 ppm, 5 min.",12.4
same,Cooling Sensation Score,"panelists; 1000 ppm coolant in paste, rinse Ca+2 723 ppm, 15 min.",2.2
same,Cooling Sensation Score,"panelists; 1000 ppm coolant in paste, rinse Ca+2 723 ppm, 30 min.",0
same,Cooling Sensation Score,"panelists; 1000 ppm coolant in paste, rinse Ca+2 723 ppm, 45 min.",0
same,Cooling Sensation Score,"panelists; 1000 ppm coolant in paste, rinse Ca+2 723 ppm, 60 min.",0
O=P([O-])([O-])OP(=O)([O-])OP(=O)([O-])[O-].[Na+].[Na+].[Na+].[Na+].[Na+] [Penta sodium triphosphate],% Change from G-180 value,human TRPM8,0.66%
same,Average Fluorescence (n = 3),human TRPM8; [13],17628.02
"O=P(O)(O)O[C@H]1[C@H](OP(=O)(O)O)[C@@H](OP(=O)(O)O)[C@H](OP(=O)(O)O)[C@@H](OP(=O)(O)O)[C@H]1OP(=O)(O)O [Phytic acid, myo-inositol 1,2,3,4,5,6-hexakis (dihydrogen phosphate)]",Average Fluorescence (n = 3),human TRPM8; 100 uM test compound alone (direct effect on TRPM8),129.38
same,% Change from G-180 value,human TRPM8,23.36%
same,% Change from G-180 value,human TRPM8; listed as Phytic Acid,21.20%
same,% Change from G-180 value,human TRPM8; listed as phytic acid,23.36%
same,Average Fluorescence (n = 3),human TRPM8; [13],18382.62
same,Average Fluorescence (n = 3),"human TRPM8; pre-treatment with 100 uM test compound for 30 minutes, then 6.25 uM G-180, listed as Phytic Acid",21178.86
same,Modulation of the G-180 activity at TRPM8,"human TRPM8; separate experiments using the same protocol, 100 uM + 6.25 uM G-180",positive modulation was confirmed
O=P([O-])(O)OP(=O)([O-])O.[Na+].[Na+] [Sodium acid pyrophosphate],% Change from G-180 value,human TRPM8,3.22%
same,Average Fluorescence (n = 3),human TRPM8; [13],18075.77
CCCCCCCCCCCCOP(=O)([O-])[O-].[Na+].[Na+] [Sodium lauryl phosphate],% Change from G-180 value,human TRPM8,5.10%
same,Average Fluorescence (n = 3),human TRPM8; [13],18404.83
O=P(O)(O)OP(=O)(O)OP(=O)(O)O [Sodium tripolyphosphate],% Change from G-180 value,human TRPM8,5.69%
same,Average Fluorescence (n = 3),human TRPM8; [13],18508.43
"CCNC(=O)C1CC(C)CCC1C(C)C (centres unmarked) [WS-3, N-ethyl-ρ-menthan-3-carboxamide]",Cooling Sensation Score,panelists; [7],26.2
same,Cooling Sensation Score,panelists; [8],25.4
same,Cooling Sensation Score,panelists; [9],11.3
same,Cooling Sensation Score,panelists; [10],0
same,Cooling Sensation Score,panelists; [11],0
same,Cooling Sensation Score,panelists; [12],0
same,Cooling Sensation Score,"panelists; 1000 ppm coolant in paste, rinse Ca+2 271 ppm, 0 min.",23.8
same,Cooling Sensation Score,"panelists; 1000 ppm coolant in paste, rinse Ca+2 271 ppm, 5 min.",21.4
same,Cooling Sensation Score,"panelists; 1000 ppm coolant in paste, rinse Ca+2 271 ppm, 15 min.",10.8
same,Cooling Sensation Score,"panelists; 1000 ppm coolant in paste, rinse Ca+2 271 ppm, 30 min.",2.4
same,Cooling Sensation Score,"panelists; 1000 ppm coolant in paste, rinse Ca+2 271 ppm, 45 min.",0
same,Cooling Sensation Score,"panelists; 1000 ppm coolant in paste, rinse Ca+2 271 ppm, 60 min.",0
same,Cooling Sensation Score,"panelists; 1000 ppm coolant in paste, rinse Ca+2 542 ppm, 0 min.",23.6
same,Cooling Sensation Score,"panelists; 1000 ppm coolant in paste, rinse Ca+2 542 ppm, 5 min.",14.0
same,Cooling Sensation Score,"panelists; 1000 ppm coolant in paste, rinse Ca+2 542 ppm, 15 min.",0
same,Cooling Sensation Score,"panelists; 1000 ppm coolant in paste, rinse Ca+2 542 ppm, 30 min.",0
same,Cooling Sensation Score,"panelists; 1000 ppm coolant in paste, rinse Ca+2 542 ppm, 45 min.",0
same,Cooling Sensation Score,"panelists; 1000 ppm coolant in paste, rinse Ca+2 542 ppm, 60 min.",0
same,Cooling Sensation Score,panelists; [1],18.1
same,Cooling Sensation Score,panelists; [2],29.4
same,Cooling Sensation Score,panelists; [3],12.7
same,Cooling Sensation Score,panelists; [4],0
same,Cooling Sensation Score,panelists; [5],0
same,Cooling Sensation Score,panelists; [6],0
same,Cooling Sensation Score,"panelists; 1500 ppm coolant in paste, rinse Ca+2 271 ppm, 0 min.",20.0
same,Cooling Sensation Score,"panelists; 1500 ppm coolant in paste, rinse Ca+2 271 ppm, 5 min.",29.8
same,Cooling Sensation Score,"panelists; 1500 ppm coolant in paste, rinse Ca+2 271 ppm, 15 min.",9.5
same,Cooling Sensation Score,"panelists; 1500 ppm coolant in paste, rinse Ca+2 271 ppm, 30 min.",1.1
same,Cooling Sensation Score,"panelists; 1500 ppm coolant in paste, rinse Ca+2 271 ppm, 45 min.",0
same,Cooling Sensation Score,"panelists; 1500 ppm coolant in paste, rinse Ca+2 271 ppm, 60 min.",0
same,Cooling Sensation Score,"panelists; 1500 ppm coolant in paste, rinse Ca+2 542 ppm, 0 min.",19.3
same,Cooling Sensation Score,"panelists; 1500 ppm coolant in paste, rinse Ca+2 542 ppm, 5 min.",23.7
same,Cooling Sensation Score,"panelists; 1500 ppm coolant in paste, rinse Ca+2 542 ppm, 15 min.",5.0
same,Cooling Sensation Score,"panelists; 1500 ppm coolant in paste, rinse Ca+2 542 ppm, 30 min.",2.7
same,Cooling Sensation Score,"panelists; 1500 ppm coolant in paste, rinse Ca+2 542 ppm, 45 min.",0
same,Cooling Sensation Score,"panelists; 1500 ppm coolant in paste, rinse Ca+2 542 ppm, 60 min.",0
"CCOC(=O)CNC(=O)C1CC(C)CCC1C(C)C (centres unmarked) [WS-5, N-ethoxycarbonylmethyl-ρ-menthan-3-carboxamide]",Cooling Sensation Score,panelists; [14],29.2
same,Cooling Sensation Score,panelists; [15],22.4
same,Cooling Sensation Score,panelists; [16],8.3
same,Cooling Sensation Score,panelists; [17],1.0
same,Cooling Sensation Score,panelists; [18],0
same,Cooling Sensation Score,panelists; [19],0
same,Cooling Sensation Score,panelists; [20],30.8
same,Cooling Sensation Score,panelists; [21],22.2
same,Cooling Sensation Score,panelists; [22],8.4
same,Cooling Sensation Score,panelists; [23],2.2
same,Cooling Sensation Score,panelists; [24],0
same,Cooling Sensation Score,panelists; [25],0
"CNC(=O)C(C)(C(C)C)C(C)C [WS-23, N,2,3-trimethyl-2-isopropylbutanamide]",Cooling Sensation Score,panelists; [14],15.4
same,Cooling Sensation Score,panelists; [15],7.4
same,Cooling Sensation Score,panelists; [16],3.0
same,Cooling Sensation Score,panelists; [17],0
same,Cooling Sensation Score,panelists; [18],0
same,Cooling Sensation Score,panelists; [19],0
same,Cooling Sensation Score,panelists; [20],18.8
same,Cooling Sensation Score,panelists; [21],4.9
same,Cooling Sensation Score,panelists; [22],1.0
same,Cooling Sensation Score,panelists; [23],0
same,Cooling Sensation Score,panelists; [24],0
same,Cooling Sensation Score,panelists; [25],0
